Converted amounts (≈) assume the structure as drawn.
Tested on: Burkholderia cenocepacia BC240 (Cystic fibrosis isolate, MDR)
Experiment: MIC assay BC240
Format: cell-based

CN(C)[C@@H]1C(O)=C(C(N)=O)C(=O)[C@@]2(O)C(O)=C3C(=O)c4c(O)cccc4C[C@H]3C[C@@H]12 [Sancycline, sancycline]
MIC BC240 (Table 5): 4 µg/mL (≈ 9.65 µM)
MIC BC240 (Table 6): 4 µg/mL (≈ 9.65 µM)
MIC BC240 (Table 7): 4 µg/mL (≈ 9.65 µM)
MIC BC240 (control compounds, numeric): 4 µg/mL (≈ 9.65 µM)

CN(C)c1cc(NC(=O)CNC(C)(C)C)c(O)c2c1C[C@H]1C[C@H]3[C@H](N(C)C)C(O)=C(C(N)=O)C(=O)[C@@]3(O)C(O)=C1C2=O [Tigecycline, tigecycline]
MIC BC240 (Table 5): 16 µg/mL (≈ 27.3 µM)
MIC BC240 (Table 6): 16 µg/mL (≈ 27.3 µM)
MIC BC240 (Table 7): 16 µg/mL (≈ 27.3 µM)
MIC BC240 (control compounds, numeric): 16 µg/mL (≈ 27.3 µM)
